For one compound, inhibition results are on record in article PMC6934184, “Selective DNA-PKcs inhibition extends the therapeutic index of localized radiotherapy and chemotherapy” (The Journal of Clinical Investigation, 2019).

For the assay, the target named is T1, KIT T670E (Homo sapiens, UniProt P10721, T670E).
T1 construct: purchased Thermo Fisher Scientific (Life Technologies) SelectScreen
Briefly: SelectScreen LanthaScreen. Type of assay: binding. The following applies: read-out: % displacement. An outline of the steps:
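SelectScreen broad panel; activity (Z'LYTE, Adapta) plus binding formats. ATP: Km app for CSF1R Z'LYTE; 10 for CAMK1 Adapta. Readout = % per kinase.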
(In general: In TR-FRET formats the signal depends on donor and acceptor labels being close together.)

Molecules are shown by their SMILES.

T1 sequence (P10721 26-976 T670E): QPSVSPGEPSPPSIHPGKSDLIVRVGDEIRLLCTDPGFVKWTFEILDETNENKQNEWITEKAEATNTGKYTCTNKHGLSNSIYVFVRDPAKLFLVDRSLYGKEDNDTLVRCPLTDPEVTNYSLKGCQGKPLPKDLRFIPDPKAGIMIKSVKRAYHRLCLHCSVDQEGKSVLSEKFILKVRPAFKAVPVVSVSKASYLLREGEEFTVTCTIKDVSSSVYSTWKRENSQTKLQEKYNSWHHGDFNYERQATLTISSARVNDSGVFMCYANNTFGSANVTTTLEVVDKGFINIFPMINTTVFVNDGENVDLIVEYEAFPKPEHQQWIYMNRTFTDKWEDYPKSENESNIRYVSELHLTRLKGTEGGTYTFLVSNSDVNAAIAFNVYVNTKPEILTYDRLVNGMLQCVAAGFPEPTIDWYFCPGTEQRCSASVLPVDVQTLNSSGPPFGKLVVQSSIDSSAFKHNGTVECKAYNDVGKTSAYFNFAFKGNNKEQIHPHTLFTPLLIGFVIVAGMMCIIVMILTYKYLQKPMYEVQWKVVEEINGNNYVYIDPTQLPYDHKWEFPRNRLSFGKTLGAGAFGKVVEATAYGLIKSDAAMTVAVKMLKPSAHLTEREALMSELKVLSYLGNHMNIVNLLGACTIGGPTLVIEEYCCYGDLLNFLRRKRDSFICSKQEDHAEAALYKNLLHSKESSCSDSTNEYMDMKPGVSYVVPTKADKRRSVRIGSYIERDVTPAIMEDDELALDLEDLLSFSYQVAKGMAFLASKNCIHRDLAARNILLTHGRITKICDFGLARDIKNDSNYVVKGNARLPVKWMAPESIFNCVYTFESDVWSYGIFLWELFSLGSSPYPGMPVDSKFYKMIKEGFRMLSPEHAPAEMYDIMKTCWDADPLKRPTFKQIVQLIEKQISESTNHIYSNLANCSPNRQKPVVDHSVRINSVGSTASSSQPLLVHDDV

Consider `CN(C(=O)CN1CCOCC1)c1ccc2sc3c(-c4cccc5c(=O)cc(N6CC7CCC(C6)O7)oc45)cccc3c2c1` [NU5455], for which the inhibition at 1 µM is -2.8%.
